Data taken from patent publication US9321776B2, “Isochromene derivatives as phoshoinositide 3-kinases inhibitors” (CHIESI FARMACEUTICI S.p.A., priority 2013, dated 2016).
Counter-ions that a name gives are not always drawn.

Legend:
PI3Kδ = molecular target: T1, PI3Kδ (Homo sapiens, UniProt O00329); assay: PI3K enzyme inhibitory activity in the cell free assay (ADP-Glo Kinase Assay); assay type: biochemical; settings: human recombinant PI3Kδ, ATP 80 μM; read-out: PI3K delta inhibition
T1 construct: purchased Millipore Ltd (Billerica, Mass.)
T1 sequence (O00329 1-1044): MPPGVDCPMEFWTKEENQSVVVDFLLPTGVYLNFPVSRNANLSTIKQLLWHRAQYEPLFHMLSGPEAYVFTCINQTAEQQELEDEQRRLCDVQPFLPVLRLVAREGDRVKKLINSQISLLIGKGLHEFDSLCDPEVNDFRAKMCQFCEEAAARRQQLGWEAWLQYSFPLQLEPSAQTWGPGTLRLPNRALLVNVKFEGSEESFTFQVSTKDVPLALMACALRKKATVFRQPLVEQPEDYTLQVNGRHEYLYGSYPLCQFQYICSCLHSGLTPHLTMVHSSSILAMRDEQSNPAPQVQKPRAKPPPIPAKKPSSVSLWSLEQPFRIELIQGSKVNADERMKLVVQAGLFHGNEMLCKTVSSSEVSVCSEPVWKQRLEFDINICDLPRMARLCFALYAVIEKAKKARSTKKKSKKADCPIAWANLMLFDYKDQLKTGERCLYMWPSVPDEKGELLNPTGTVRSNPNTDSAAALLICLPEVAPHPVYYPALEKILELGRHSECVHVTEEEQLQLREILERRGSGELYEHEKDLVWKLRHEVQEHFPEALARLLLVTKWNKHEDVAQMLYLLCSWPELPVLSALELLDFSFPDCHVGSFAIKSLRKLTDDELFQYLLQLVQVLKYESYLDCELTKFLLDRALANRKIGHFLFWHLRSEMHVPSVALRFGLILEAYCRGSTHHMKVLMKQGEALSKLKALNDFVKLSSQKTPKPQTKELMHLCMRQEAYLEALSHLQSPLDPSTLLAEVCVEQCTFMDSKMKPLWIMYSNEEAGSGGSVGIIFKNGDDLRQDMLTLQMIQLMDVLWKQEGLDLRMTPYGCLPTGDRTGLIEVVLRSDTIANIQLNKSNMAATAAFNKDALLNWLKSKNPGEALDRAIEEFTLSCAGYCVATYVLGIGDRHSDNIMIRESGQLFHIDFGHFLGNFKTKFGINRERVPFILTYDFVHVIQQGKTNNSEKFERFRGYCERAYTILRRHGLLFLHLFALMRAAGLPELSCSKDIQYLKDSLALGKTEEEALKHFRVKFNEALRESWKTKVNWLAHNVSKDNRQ

PI3Kγ = molecular target: T2, PI3Kγ (Homo sapiens, UniProt P48736); assay: as above; assay type: biochemical; settings: human recombinant PI3Kγ, ATP 30 μM; read-out: PI3K gamma inhibition
T2 construct: purchased Millipore Ltd (Billerica, Mass.)
T2 sequence (P48736 whole entry): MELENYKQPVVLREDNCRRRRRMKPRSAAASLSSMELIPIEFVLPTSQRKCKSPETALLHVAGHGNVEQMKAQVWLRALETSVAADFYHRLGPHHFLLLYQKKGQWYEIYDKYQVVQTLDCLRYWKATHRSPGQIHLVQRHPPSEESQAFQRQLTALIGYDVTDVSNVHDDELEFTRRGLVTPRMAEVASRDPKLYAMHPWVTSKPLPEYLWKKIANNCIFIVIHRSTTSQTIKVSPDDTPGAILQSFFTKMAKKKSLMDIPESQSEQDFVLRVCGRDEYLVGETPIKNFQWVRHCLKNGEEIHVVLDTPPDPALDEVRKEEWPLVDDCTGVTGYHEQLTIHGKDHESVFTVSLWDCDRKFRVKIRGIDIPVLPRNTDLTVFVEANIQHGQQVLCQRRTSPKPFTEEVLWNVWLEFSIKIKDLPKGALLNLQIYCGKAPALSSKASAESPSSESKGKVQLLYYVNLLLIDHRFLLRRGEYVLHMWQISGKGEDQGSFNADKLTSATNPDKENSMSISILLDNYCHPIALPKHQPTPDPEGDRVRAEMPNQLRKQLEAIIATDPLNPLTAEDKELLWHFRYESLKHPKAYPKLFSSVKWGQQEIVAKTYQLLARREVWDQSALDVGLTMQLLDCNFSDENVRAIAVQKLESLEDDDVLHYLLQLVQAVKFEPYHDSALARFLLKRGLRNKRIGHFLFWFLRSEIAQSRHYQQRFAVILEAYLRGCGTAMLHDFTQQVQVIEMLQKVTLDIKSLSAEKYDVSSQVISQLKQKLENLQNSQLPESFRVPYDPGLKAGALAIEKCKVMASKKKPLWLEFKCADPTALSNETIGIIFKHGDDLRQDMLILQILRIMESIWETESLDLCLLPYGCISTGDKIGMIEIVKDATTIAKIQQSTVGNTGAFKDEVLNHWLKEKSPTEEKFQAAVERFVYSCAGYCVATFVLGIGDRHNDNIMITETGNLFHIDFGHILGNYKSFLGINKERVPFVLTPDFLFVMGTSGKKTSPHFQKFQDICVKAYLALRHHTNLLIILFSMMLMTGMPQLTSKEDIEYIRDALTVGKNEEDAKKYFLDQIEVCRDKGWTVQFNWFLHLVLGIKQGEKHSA

Row | Compound | IC50 (PI3Kδ) | IC50 (PI3Kγ)
1 | CC(c1oc(=O)c2ccccc2c1C1=CCN(C)CC1)n1nc(-c2cc(O)cc(F)c2)c2c(N)ncnc21 (single isomer, unassigned) [Example 46b, 3-1-(4-amino-3-(3-fluoro-5-hydroxyphenyl)-1H-pyrazolo[3,4-d]pyrimidin-1-yl)ethyl)-4-(1-methyl-1,2,3,6-tetrahydropyridin-4-yl)-1H-isochromen-1-one hydrochloride] | 10 to 1000 nM | > 1000 nM
2 | CC(c1oc(=O)c2ccccc2c1-c1cccc(CN(C)C)c1)n1nc(-c2cc(O)cc(F)c2)c2c(N)ncnc21 (single isomer, unassigned) [Example 67b, 3-(1-(4-amino-3-(3-fluoro-5-hydroxyphenyl)-1H-pyrazolo[3,4-d]pyrimidin-1-yl)ethyl)-4-(3-((dimethylamino)methyl)phenyl)-1H-isochromen-1-one] | 10 to 1000 nM | –
3 | CC(c1oc(=O)c2ccccc2c1-c1ccc(CN2CCCCC2)s1)n1nc(-c2cc(O)cc(F)c2)c2c(N)ncnc21 (single isomer, unassigned) [Example 68a, 3-(1-(4-amino-3-(3-fluoro-5-hydroxyphenyl)-1H-pyrazolo[3,4-d]pyrimidin-1-yl)ethyl)-4-(5-(piperidin-1-ylmethyl)thiophen-2-yl)-1H-isochromen-1-one hydrochloride single enantiomers] | 10 to 1000 nM | –
4 | CC(c1oc(=O)c2ccccc2c1-c1ccc(CN2CCN(CCO)CC2)s1)n1nc(-c2cc(O)cc(F)c2)c2c(N)ncnc21 (single isomer, unassigned) [Example 76a, 3-(1-(4-amino-3-(3-fluoro-5-hydroxyphenyl)-1H-pyrazolo[3,4-d]pyrimidin-1-yl)ethyl)-4-(5-((4-(2-hydroxyethyl)piperazin-1-yl)methyl)thiophen-2-yl)-1H-isochromen-1-one hydrochloride] | 10 to 1000 nM | –
5 | CC(c1oc(=O)c2ccccc2c1-c1ccccc1)n1cnc2c(N)ncnc21 (stereo not drawn) [Example 5, 3-(1-(6-Amino-9H-1-purin-9-yl)ethyl)-4-phenyl-1H-isochromen-1-one] | 10 to 1000 nM | 10 to 1000 nM
6 | Cc1cccc(-c2c(C(C)n3cnc4c(N)ncnc43)oc(=O)c3ccccc23)c1 (stereo not drawn) [Example 6, 3-(1-(6-Amino-9H-purin-9-yl)ethyl)-4-m-tolyl-1H-isochromen-1-one] | 10 to 1000 nM | 10 to 1000 nM
7 | CC(c1oc(=O)c2ccccc2c1-c1cccc(F)c1)n1cnc2c(N)ncnc21 (stereo not drawn) [Example 7, 3-(1-(6-Amino-9H-purin-9-yl)ethyl)-4-(3-fluorophenyl)-1H-isochromen-1-one] | 10 to 1000 nM | 10 to 1000 nM
8 | CC(c1oc(=O)c2ccccc2c1-c1cccc(N(C)C)c1)n1cnc2c(N)ncnc21 (stereo not drawn) [Example 8, 3-(1-(6-Amino-9H-purin-9-yl)ethyl)-4-(3-(dimethylamino)phenyl)-1H-isochromen-1-one] | 10 to 1000 nM | 10 to 1000 nM
9 | Cc1cc(-c2c(C(C)n3ncc4c(N)ncnc43)oc(=O)c3ccccc23)ccn1 (stereo not drawn) [Example 19, 3-(1-(4-Amino-1H-pyrazolo[3,4-d]pyrimidin-1-yl)ethyl)-4-(2-methylpyridin-4-yl)-1H-isochromen-1-one] | 10 to 1000 nM | –
10 | CC(c1oc(=O)c2ccccc2c1Cc1ccccc1)n1ncc2c(N)ncnc21 (stereo not drawn) [Example 20, 3-(1-(4-Amino-1H-pyrazolo[3,4-d]pyrimidin-1-yl)ethyl)-4-benzyl-1H-isochromen-1-one] | 10 to 1000 nM | –
11 | CC(c1oc(=O)c2ccccc2c1-c1ccccc1)n1nc(-c2cnc(O)nc2)c2c(N)ncnc21 (stereo not drawn) [Example 56, 3-(1-(4-amino-3-(2-hydroxypyrimidin-5-yl)-1H-pyrazolo[3,4-d]pyrimidin-1-yl)ethyl)-4-phenyl-1H-isochromen-1-one] | 10 to 1000 nM | –
12 | CC(c1oc(=O)c2ccccc2c1-c1ccccc1)n1nc(-c2cncc(O)n2)c2c(N)ncnc21 (stereo not drawn) [Example 90, 3-(1-(4-amino-3-(6-hydroxypyrazin-2-yl)-1H-pyrazolo[3,4-d]pyrimidin-1-yl)ethyl)-4-phenyl-1H-isochromen-1-one] | 10 to 1000 nM | –
13 | CC(c1oc(=O)c2ccccc2c1-c1ccccc1)n1nc(-c2cc(F)cc(Cl)c2)c2c(N)ncnc21 (stereo not drawn) [Example 95, 3-(1-(4-amino-3-(3-chloro-5-fluorophenyl)-1H-pyrazolo[3,4-d]pyrimidin-1-yl)ethyl)-4-phenyl-1H-isochromen-1-one] | > 1000 nM | –
14 | CC(c1oc(=O)c2ccccc2c1-c1ccccc1)n1nc(-c2cncc(S(C)(=O)=O)c2)c2c(N)ncnc21 (stereo not drawn) [Example 96, 3-(1-(4-amino-3-(5-(methylsulfonyl)pyridin-3-yl)-1H-pyrazolo[3,4-d]pyrimidin-1-yl)ethyl)-4-phenyl-1H-isochromen-1-one] | 10 to 1000 nM | –

Continued, values first:

Row | IC50 (PI3Kδ) | IC50 (PI3Kγ) | Compound
15 | > 1000 nM | – | CC(c1oc(=O)c2ccccc2c1-c1ccc(CCCN(C)C)cc1)n1nc(-c2cc(O)cc(F)c2)c2c(N)ncnc21 (single isomer, unassigned) [Example 138a, 3-(1-(4-amino-3-(3-fluoro-5-hydroxyphenyl)-1H-pyrazolo[3,4-d]pyrimidin-1-yl)ethyl)-4-(4-(3-(dimethylamino)propyl)phenyl)-1H-isochromen-1-one single enantiomers]
16 | 10 to 1000 nM | – | CC(c1oc(=O)c2ccccc2c1-c1ccccc1)n1nc(-c2cnc(O)c(F)c2)c2c(N)ncnc21 (stereo not drawn) [Example 98, 3-(1-(4-amino-3-(5-fluoro-6-hydroxypyridin-3-yl)-1H-pyrazolo[3,4-d]pyrimidin-1-yl)ethyl)-4-phenyl-1H-isochromen-1-one]
17 | 10 to 1000 nM | – | CC(c1oc(=O)c2ccccc2c1-c1ccccc1)n1nc(-c2cncc(C(F)(F)F)c2)c2c(N)ncnc21 (stereo not drawn) [Example 100, 3-(1-(4-amino-3-(5-(trifluoromethyl)pyridin-3-yl)-1H-pyrazolo[3,4-d]pyrimidin-1-yl)ethyl)-4-phenyl-1H-isochromen-1-one]
18 | 10 to 1000 nM | – | CC(c1oc(=O)c2ccccc2c1-c1ccccc1)n1nc(-c2cc(O)cc(S(F)(F)(F)(F)F)c2)c2c(N)ncnc21 (stereo not drawn) [Example 101, 3-(1-(4-amino-3-(5-hydroxy-3-sulfurpentafluoride)-1H-pyrazolo[3,4-d]pyrimidin-1-yl)ethyl)-4-phenyl-1H-isochromen-1-one]
19 | – | 10 to 1000 nM | CC(c1oc(=O)c2ccccc2c1-c1ccccc1)n1nc(-c2cncc(C#N)c2)c2c(N)ncnc21 (stereo not drawn) [Example 102, 5-(4-amino-1-(1-(1-oxo-4-phenyl-1H-isochromen-3-yl)ethyl)-1H-pyrazolo[3,4-d]pyrimidin-3-yl)nicotinonitrile]
20 | 10 to 1000 nM | – | CC(Nc1ncnc2sccc12)c1oc(=O)c2ccccc2c1-c1ccccc1 (stereo not drawn) [Example 108, 4-phenyl-3-(1-(thieno[2,3-d]pyrimidin-4-ylamino)ethyl)-1H-isochromen-1-one]
21 | 10 to 1000 nM | – | CC(c1oc(=O)c2ccccc2c1-c1ccccc1)n1nc(-c2ccc3[nH]nc(N)c3c2)c2c(N)ncnc21 (stereo not drawn) [Example 113, 3-(1-(4-amino-3-(3-amino-1H-indazol-5-yl)-1H-pyrazolo[3,4-d]pyrimidin-1-yl)ethyl)-4-phenyl-1H-isochromen-1-one]
22 | > 1000 nM | – | CC(c1oc(=O)c2ccccc2c1-c1ccc(CN2CCNCC2)cc1)n1ncc2c(N)ncnc21 (stereo not drawn) [Example 127, 3-(1-(4-amino-1H-pyrazolo[3,4-d]pyrimidin-1-yl)ethyl)-4-(4-(piperazin-1-ylmethyl)phenyl)-1H-isochromen-1-one hydrochloride]
